Patent US20260008862A1, “Bispecific Anti-BCMA x Anti-CD3 Antibodies and Uses Thereof” (Regeneron Pharmaceuticals, Inc., priority 2018, published 2026)
Entries after “also recorded” stand apart in the source; their conditions may differ.

Experiments:
[1] = target: T1, primary cynomolgus CD8+ T cells (Macaca fascicularis, UniProt Q95LI5+Q95LI8); test: FACS binding to primary cynomolgus CD8+ T cells; details: median EC50, FACS binding
T1 construct: endogenous in cells; host or cells: primary cynomolgus CD8+ T cells (gated CD8+/CD16-)
Protocol: Flow cytometric analysis was utilized to determine binding of BCMA×CD3 bispecific antibodies to human and cynomolgus CD3 (Jurkat cells, mfCD3 engineered Jurkat cells, primary human CD8+ and cynomolgus CD8+ T cells). Briefly, 1e05 cells/well were incubated in the presence of FACS wash with block (PBS+1% filtered FBS+5% mouse serum) with a serial dilution of BCMA×CD3 and control antibodies for 30 minutes on ice. After incubation, the cells were washed twice with cold FACS wash (PBS+1% filtered FBS) and bound antibody was detected by incubating with Alexa647-conjugated anti-human secondary antibody on ice for an additional 30 minutes. Wells containing no antibody or secondary only were used as a control. For the detection of monkey and human T cells, a cocktail of human and cynomolgus cross-reactive antibodies to CD4, CD8 and CD16 was added to the anti-human secondary. After incubation, cells were washed, re-suspended in 200 μL cold PBS containing 1% filtered FBS and analyzed by flow cytometry on a BD FACS Canto II. Cells were gated by FSC-H by FSC-A to select singlet events, followed by side and forward scatters to select for live events. For monkey T cells, additional gating on CD8+/CD16− cells was performed.
EC50 values for FACS binding were calculated using 4-parameter non-linear regression analysis in Prism software.

[2] = tested on: BCMA+ MOLP-8-luciferase tumors; test: MOLP-8-luciferase intravenous xenogenic tumor model, BLI (Example 14); assay type: in vivo, mouse; details: 4 mg/kg on days 0, 3 and 7
Protocol: To determine the in vivo efficacy of anti-BCMA×anti-CD3 bispecific antibodies (Abs), a xenogenic tumor study was performed. On day −11, immunodeficient NOD.Cg-Prkdc^scidIl2rg^tm1Wji/SzJ (NSG) mice were intraperitoneally injected with 4×10^6 human peripheral blood mononuclear cells (PBMC) from a normal, healthy donor. On day 0, the mice were intravenously administered 2×10^6 BCMA^+ MOLP-8 human multiple myeloma tumor cells that were engineered to also express firefly luciferase (MOLP-8-luciferase cells). […] The mice were administered these Abs twice more on days 3 and 7, for a total of three doses. Tumor growth was assessed over 48 days by measuring tumor bioluminescence (BLI) in anesthetized animals. As a positive control, a group of mice (n=5) was given only MOLP-8-luciferase cells, but not PBMC or antibody.
Implantation and measurement of xenogenic tumors: On day −11, immunodeficient NOD.Cg-Prkdc^scidIl2rg^tm1Wji/SzJ (NSG) mice were intraperitoneally injected with 5×10^6 human PBMC from a normal, healthy donor. […] Tumor growth was assessed over 48 days by measuring tumor BLI in anesthetized animals. […]
Measurement of xenogenic tumor growth: BLI imaging was used to measure tumor burden. […] Image acquisition was carried out with the field of view at D, subject height of 1.5 cm, and medium binning level with automatic exposure time determined by the Living Image Software. […]

MC38/BCMA tumors = test: Syngenic MC38/BCMA tumor model in CD3-humanized mice (Example 16); assay type: in vivo, mouse
Protocol: To determine the in vivo efficacy of anti-BCMA×anti-CD3 bispecific antibodies (Abs), a syngenic tumor study was performed in mice expressing human CD3. C57BL/6 mice that express human CD3deg in place of murine CD3deg (CD3-humanized mice) were subcutaneously implanted with either 0.5×10^6 B16 melanoma cells that have been engineered to express full-length human BCMA (B16/BCMA cells) or 1×10^6 MC38 colon carcinoma cells that have been engineered to express full-length human BCMA (MC38/BCMA). […] The mice were administered these Abs twice more on days 4 and 7 for a total of three doses, and tumor growth was assessed throughout the experiment.
Implantation and measurement of syngenic tumors: C57BL/6 mice that express human CD3deg in place of murine CD3deg (CD3-humanized mice) were subcutaneously implanted with either 0.5×10^6 B16F10 melanoma cells that have been engineered to express full-length human BCMA (B16/BCMA cells) or 1×10^6 MC38 colon carcinoma cells that have been engineered to express full-length human BCMA (MC38/BCMA). […] The mice were administered these Abs twice more on days 4 and 7 for a total of three doses, and tumor growth was assessed throughout the experiment.
Calculation of syngenic tumor growth and inhibition: In order to determine tumor volume by external caliper, the greatest longitudinal diameter (length in mm) and the greatest transverse diameter (width in mm) were determined. Tumor volumes based on caliper measurements were calculated by the formula: Volume (mm^3)=(length×width^2)/2.

[3] = tested on: Jurkat/NFATLuc.3C7 cells + NCI-H929 cells; test: Jurkat/NFATLuc reporter bioassay with NCI-H929 cells; assay type: cell-based; details: highest RLU / lowest RLU
Protocol: Activity of the anti-BCMA×anti-CD3 bispecific antibodies were assessed in a Jurkat/NFATLuc reporter bioassay utilizing several cell lines with varying levels of BCMA surface expression. The Jurkat cells were engineered to express an NFAT-luciferase reporter (Jurkat/NFATLuc.3C7), and 50,000 Jurkat reporter cells were combined with 50,000 BCMA positive (Daudi, MM1-S, NCI-H929, OPM-2, RPMI-8226, MOLP-8, or Raji) or BCMA negative (HEK293) cells in Thermo Nunclon delta 96 well white microwell plates (Thermo Scientific, Cat #136102) in 50 ul of assay media (RPMI media with 10% FBS and 1% P/S/G). Three-fold serial dilutions of the BCMA×CD3 bispecific antibodies (mAb25441 D or mAb25442D), or a bivalent anti-BCMA antibody (mAb21581) were immediately added in 50 μL of assay buffer. The plates were gently agitated and incubated in a 37° C., 5% CO2 incubator for 4-6 hours. NFAT-Luciferase activity was determined using Promega One-Glo (Cat #E6130) and a Perkin Elmer Envision plate reader. RLU were plotted in GraphPad Prism using a four-parameter logistic equation over a 12-point response curve to calculate EC50 values. […] The signal to noise (S:N) is determined by taking the ratio of the highest RLU on the curve to the lowest.

T1 sequence (Q95LI5 22-198): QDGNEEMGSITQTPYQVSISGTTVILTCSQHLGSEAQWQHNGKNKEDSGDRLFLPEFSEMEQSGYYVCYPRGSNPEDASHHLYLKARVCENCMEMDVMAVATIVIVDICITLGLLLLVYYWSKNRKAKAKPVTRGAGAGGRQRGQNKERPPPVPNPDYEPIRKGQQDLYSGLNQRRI
T1 sequence (Q95LI8 22-171): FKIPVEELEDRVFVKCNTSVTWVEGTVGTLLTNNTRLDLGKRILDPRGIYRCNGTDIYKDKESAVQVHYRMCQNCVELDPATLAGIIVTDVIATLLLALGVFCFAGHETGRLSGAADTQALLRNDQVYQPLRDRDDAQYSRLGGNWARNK
T1 sequence (Q95LI7 23-181 partner): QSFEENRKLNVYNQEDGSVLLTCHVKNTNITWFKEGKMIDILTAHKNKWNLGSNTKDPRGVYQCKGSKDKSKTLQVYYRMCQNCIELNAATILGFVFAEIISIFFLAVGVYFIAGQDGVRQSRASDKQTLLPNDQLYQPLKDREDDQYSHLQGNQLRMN

With “REGN5459: anti-BCMA×anti-CD3 bispecific antibody: BCMA HCVR of mAb21581 (SEQ 66), CD3 HCVR of mAb7221G20 (SEQ 98), common LCVR SEQ 82” the “Mf (Cyno) CD8+ T cells EC50 [M]” value [1] was “did not bind; also recorded: No binding”.

For “REGN5458: anti-BCMA×anti-CD3 bispecific antibody: BCMA HCVR of mAb21581 (SEQ 66), CD3 HCVR of mAb7221G (SEQ 90), common LCVR SEQ 82”, the “tumor growth (in words)” value [2] was “delayed the growth”, the “Average Tumor Size (mm3) ± SEM on Day 5” value (MC38/BCMA tumors; MC38/BCMA Tumor, 0.04 mg/kg, Day 5) was 11.9 ± 2.9 mm3 and the “Average Tumor Size (mm3) ± SEM on Day 10” value (MC38/BCMA tumors; MC38/BCMA Tumor, 0.04 mg/kg) was 66.7 ± 22.5 mm3. The “Average Tumor Size (mm3) ± SEM on Day 14” value (MC38/BCMA tumors; MC38/BCMA Tumor, 0.04 mg/kg) was 273.3 ± 115.3 mm3, the “Average Tumor Size (mm3) ± SEM on Day 18” value (MC38/BCMA tumors; MC38/BCMA Tumor, 0.04 mg/kg) was 641.5 ± 309.8 mm3 and the “Average Tumor Size (mm3) ± SEM on Day 10” value (MC38/BCMA tumors; MC38/BCMA Tumor, 0.4 mg/kg) was 0.0 ± 0.0 mm3. The “Average Tumor Size (mm3) ± SEM on Day 14” value (MC38/BCMA tumors; MC38/BCMA Tumor, 0.4 mg/kg) was 2.9 ± 2.9 mm3, the “Average Tumor Size (mm3) ± SEM on Day 18” value (MC38/BCMA tumors; MC38/BCMA Tumor, 0.4 mg/kg) was 7.5 ± 7.5 mm3 and the “tumor growth (in words)” value (MC38/BCMA tumors; MC38/BCMA, 0.4 or 0.04 mg/kg, three doses) was “suppress the growth of both tumor lines in a dose-dependent manner”. The “S:N” value [3] was 39.
